According to patent US20200246331A1, “Pharmaceutical combinations and their use” (Novartis AG, priority 2015, published 2020):
Read-outs that look alike come from different tables or passages of the source.

Assays:
Type in all cases: cell-based
UM 92.1 cell line = assay: 72 hr CellTiter-Glo cell proliferation assay, 92.1; conditions: for IC50: 92.1 cell line, 72 hr CTG, read-out: IC50 single agent activity
Description: (§1) Next, luminescence was recorded using the plate reader.
The percent growth inhibition and excess inhibition were analysed using the Chalice software (CombinatoRx, Cambridge Mass.). […] All remaining points in the grids display results from a combination of the two inhibitors that correspond to the single agent concentrations denoted on the two axes. Data analysis of cell proliferation was performed using Chalice Analyser as described in (Lehar et al. 2009). Excess inhibition was calculated using the Loewe synergy model which measures the effect on growth relative to what would be expected if two drugs behave in a dose additive manner. Positive numbers represent areas of increasing synergy.

Mel202 UM cell line = assay: 72 hr CellTiter-Glo cell proliferation assay, Mel202; conditions: read-out: IC50 single agent activity
Description: as §1

Mel270 UM cell line = assay: 72 hr CellTiter-Glo cell proliferation assay, Mel270; conditions: read-out: IC50 single agent activity
Description: as §1

Mel285 UM cell line = assay: 72 hr CellTiter-Glo cell proliferation assay, Mel285; conditions: read-out: IC50 single agent activity
Description: as §1

OMM2.5 UM cell line = assay: 72 hr CellTiter-Glo cell proliferation assay, OMM2.5; conditions: read-out: IC50 single agent activity
Description: as §1

COc1cc2c(cc1OC(C)C)[C@H](c1ccc(Cl)cc1)N(c1ccc(N(C)C[C@H]3CC[C@H](N4CCN(C)C(=O)C4)CC3)cc1)C(=O)C2 [Compound A, (S)-1-(4-Chloro-phenyl)-7-isopropoxy-6-methoxy-2-(4-{methyl-[4-(4-methyl-3-oxo-piperazin-1-yl)-trans-cyclohexylmethyl]-amino}-phenyl)-1,4-dihydro-2H-isoquinolin-3-one]
IC50 (UM 92.1 cell line): 667 nM | IC50 (Mel202 UM cell line; Mel202 cell line, 72 hr CTG): 401 nM | IC50 (Mel270 UM cell line; Mel270 cell line, 72 hr CTG): 362 nM | IC50 (Mel285 UM cell line; Mel285 cell line, 72 hr CTG): 1260 nM | IC50 (OMM2.5 UM cell line; OMM2.5 cell line, 72 hr CTG): 2570 nM

COc1ncc(-c2nc3c(n2C(C)C)[C@H](c2ccc(Cl)cc2)N(c2cc(Cl)cn(C)c2=O)C3=O)c(OC)n1 [Compound B, (S)-5-(5-Chloro-1-methyl-2-oxo-1,2-dihydro-pyridin-3-yl)-6-(4-chloro-phenyl)-2-(2,4-dimethoxy-pyrimidin-5-yl)-1-isopropyl-5,6-dihydro-1H-pyrrolo[3,4-d]imidazol-4-one]
IC50 (UM 92.1 cell line): 86 nM | IC50 (Mel202 UM cell line; Mel202, 72 h): 60 nM | IC50 (Mel270 UM cell line; 72 h): 34 nM | IC50 (Mel285 UM cell line; 72 h): 167 nM | IC50 (OMM2.5 UM cell line; 72 h): 249 nM

CC1(N)CCN(c2cccnc2NC(=O)c2nc(-c3ncccc3C(F)(F)F)cnc2N)CC1 [Compound D, 3-amino-N-(3-(4-amino-4-methylpiperidin-1-yl)pyridin-2-yl)-6-(3-(trifluoromethyl)pyridin-2-yl)pyrazine-2-carboxamide]
efficacy as single agent compared with the other PKC inhibitor (UM 92.1 cell line; one UM cell line, single agent): more effective as a single agent
